Measurements: patent US20260234123A1, “Inhibitors of NLRP3” (Mwyngil Therapeutics, Inc., priority 2023, published 2026)

Tested on: IL1b release THP-1
Test: IL1b release THP-1 (ELISA)
Format: cell-based
Details: Homo sapiens; average EC50; THP-1 cells primed with 1 μg/ml LPS 4 h, stimulated with 10 μM Nigericin 2 h; IL-1β in supernatant by ELISA; read-out: THP 1 IL 1b, EC50
Procedure, shortened: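 THP-1 cells in serum-free medium were primed with 1 μg/ml LPS for 4 h, then stimulated with 10 μM nigericin for 2 h at 37° C., 5% CO2. IL-1β in supernatant measured by ELISA; EC50 values binned into A–E ranges.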

EC50 | SMILES
500 to 1000 nM | Cc1cc(-c2ccc(C(F)(F)F)cc2Nc2ccccc2)nnc1N[C@@H]1CCCN(C(C)C)C1 [Compound 121, 6-[2-anilino-4-(trifluoromethyl)phenyl]-N-[(3R)-1-isopropyl-3-piperidyl]-4-methyl-pyridazin-3-amine]
500 to 1000 nM | Cc1cc(N[C@@H]2CCCN(C(C)C)C2)nnc1-c1ccc(C(F)(F)F)cc1NC(F)(F)F [Compound 122, N-[(3R)-1-isopropyl-3-piperidyl]-5-methyl-6-[4-(trifluoromethyl)-2-(trifluoromethylamino)phenyl]-pyridazin-3-amine]
1000 to 5000 nM | Cc1cc(N[C@@H]2CCCN(C(C)C)C2)nnc1-c1ccc(C(F)(F)F)cc1NC(=O)C(F)(F)C(F)(F)F [Compound 123, (R)-2,2,3,3,3-Pentafluoro-N-(2-(6-((1-isopropylpiperidin-3-yl)amino)-4-methylpyridazin-3-yl)-5-(trifluoromethyl)phenyl) propanamide]
1000 to 5000 nM | Cc1cc(-c2ccc(C(F)(F)F)cc2NC(=O)C(F)(F)C(F)(F)F)nnc1N[C@@H]1CCCN(C(C)C)C1 [Compound 125, 2,2,3,3,3-pentafluoro-N-[2-[6-[[(3R)-1-isopropyl-3-piperidyl]amino]-5-methyl-pyridazin-3-yl]-5-(trifluoromethyl)phenyl]propanamide]
< 500 nM | CCN1CCC[C@@H](Nc2cc(C)c(-c3ccc(C(F)(F)F)cc3N)nn2)C1 [Compound 130, (R)-6-(2-Amino-4-(trifluoromethyl)phenyl)-N-(1-ethylpiperidin-3-yl)-5-methylpyridazin-3-amine]
< 500 nM | CCN1CCC[C@@H](Nc2nnc(-c3ccc(C(F)(F)F)cc3N)cc2C)C1 [Compound 131, 6-[2-amino-4-(trifluoromethyl)phenyl]-N-[(3R)-1-ethyl-3-piperidyl]-4-methyl-pyridazin-3-amine]
< 500 nM | Cc1cc(N[C@@H]2CCCN(C(C)C)C2)nnc1-c1ccc(C(F)(F)F)cc1NC(=O)C(C)C [Compound 132, (R)—N-(2-(6-((1-Isopropylpiperidin-3-yl)amino)-4-methylpyridazin-3-yl)-5-(trifluoromethyl)phenyl) isobutyramide]
500 to 1000 nM | CCN1CCC[C@@H](Nc2nnc(-c3ccc(C(F)(F)F)cc3NC(C)=O)cc2C)C1 [Compound 133, N-[2-[6-[[(3R)-1-ethyl-3-piperidyl]amino]-5-methyl-pyridazin-3-yl]-5-(trifluoromethyl)phenyl]acetamide]
500 to 1000 nM | CCN1CCC[C@@H](Nc2cc(C)c(-c3ccc(C(F)(F)F)cc3NC(C)=O)nn2)C1 [Compound 134, (R)—N-(2-(6-((1-ethylpiperidin-3-yl)amino)-4-methylpyridazin-3-yl)-5-(trifluoromethyl)phenyl) acetamide]
500 to 1000 nM | Cc1cc(-c2ccc(C(F)(F)F)cc2NC(=O)C(C)(C)C)nnc1N[C@@H]1CCCN(C(C)C)C1 [Compound 135, N-[2-[6-[[(3R)-1-isopropyl-3-piperidyl]amino]-5-methyl-pyridazin-3-yl]-5-(trifluoromethyl)phenyl]-2,2-dimethyl-propanamide]
500 to 1000 nM | CC(=O)Nc1cc(C(F)(F)F)ccc1-c1nnc(N[C@@H]2CCCN(C(C)C)C2)cc1C [Compound 136, N-[2-[6-[[(3R)-1-isopropyl-3-piperidyl]amino]-4-methyl-pyridazin-3-yl]-5-(trifluoromethyl)phenyl]acetamide]
1000 to 5000 nM | CC(=O)Nc1cc(C(F)(F)F)ccc1-c1cc(C)c(N[C@@H]2CCCN(C(C)C)C2)nn1 [Compound 137, N-[2-[6-[[(3R)-1-isopropyl-3-piperidyl]amino]-5-methyl-pyridazin-3-yl]-5-(trifluoromethyl)phenyl]acetamide]
1000 to 5000 nM | Cc1cc(N[C@@H]2CCCN(C(C)C)C2)nnc1-c1ccc(C(F)(F)F)cc1NC(=O)C(C)(C)C [Compound 138, N-[2-[6-[[(3R)-1-isopropyl-3-piperidyl]amino]-4-methyl-pyridazin-3-yl]-5-(trifluoromethyl)phenyl]-2,2-dimethyl-propanamide]
